Bounds are passed on as bounds.

One assay deals with T1, CYP4A (Homo sapiens, UniProt Q02928).
T1 construct: purchased; host or cells: bacterial membranes ('bactosome')
T1 sequence (Q02928 5-519): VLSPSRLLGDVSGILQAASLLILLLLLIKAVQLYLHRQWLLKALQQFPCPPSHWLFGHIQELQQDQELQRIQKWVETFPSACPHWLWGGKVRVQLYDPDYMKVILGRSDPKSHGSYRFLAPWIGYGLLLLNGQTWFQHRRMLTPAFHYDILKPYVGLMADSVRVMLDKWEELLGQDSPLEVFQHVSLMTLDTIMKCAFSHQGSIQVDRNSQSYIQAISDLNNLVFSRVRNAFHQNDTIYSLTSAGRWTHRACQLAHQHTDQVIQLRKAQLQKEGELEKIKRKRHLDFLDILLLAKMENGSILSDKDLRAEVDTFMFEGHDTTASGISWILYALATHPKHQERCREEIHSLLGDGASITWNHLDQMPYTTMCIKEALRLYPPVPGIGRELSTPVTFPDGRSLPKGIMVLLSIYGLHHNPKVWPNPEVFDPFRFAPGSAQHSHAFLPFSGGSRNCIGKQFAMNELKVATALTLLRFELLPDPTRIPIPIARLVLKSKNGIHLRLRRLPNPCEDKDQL
The assay is described as follows: CYP4A enzyme assay (luminescence, Luciferin-ME). Format: biochemical. Particulars: Compound concentration 5 μM; 50%-70%; read-out: % Inhibition 50%-70%. The gist of the method:
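Compounds (5 μM) were preincubated 15 min at room temperature with CYP4A bactosomes in 100 mM KPO4, 0.1% BSA, 1 mM DTT. Reaction ran 30 min at room temperature after adding 5 mM Luciferin-ME and NADPH regeneration system. Luminescence after 15 min with detection reagent; inhibition judged by comparing well signals.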
For `Cc1cc(N2CCN(C(=O)C3CCCN(S(=O)(=O)c4cccs4)C3)CC2)c2ccccc2n1` (stereo not shown) [Example 127, (4-(2-methylquinolin-4-yl)piperazin-1-yl)(1-(thiophen-2-ylsulfonyl)piperidin-3-yl)methanone], the inhibition (usually the relative decrease from the control value, in per cent) at 5 µM is 50 to 70%.

On to `O=C(C1CCCN(S(=O)(=O)c2ccncc2)C1)N1CCN(c2cc(C(F)(F)F)nc3ccccc23)CC1` (stereo not shown) [Example 128, (1-(pyridin-4-ylsulfonyl)piperidin-3-yl)(4-(2-(trifluoromethyl)quinolin-4-yl)piperazin-1-yl)methanone], for which the inhibition at 5 µM was 50 to 70%.

Regarding `O=C(C1CCCN(S(=O)(=O)c2cccnc2)C1)N1CCN(c2cc(C(F)(F)F)nc3ccccc23)CC1` (stereo not shown) [Example 129, (1-(pyridin-3-ylsulfonyl)piperidin-3-yl)(4-(2-(trifluoromethyl)quinolin-4-yl)piperazin-1-yl)methanone], the inhibition at 5 µM was in the range of 50 to 70%.

As for `COC(=O)CCS(=O)(=O)N1CCCC(C(=O)N2CCN(c3ccnc4cc(F)ccc34)CC2)C1` (stereo not shown) [Example 130, methyl 3-((3-(4-(7-fluoroquinolin-4-yl)piperazine-1-carbonyl)piperidin-1-yl)sulfonyl)propanoate], the inhibition at 5 µM fell in the range of 50 to 70%.

`O=C(C1CCCN(S(=O)(=O)CCCO)C1)N1CCN(c2ccnc3cc(F)ccc23)CC1` (stereo not shown) [Example 131, (4-(7-fluoroquinolin-4-yl)piperazin-1-yl)(1-((3-hydroxypropyl)sulfonyl)piperidin-3-yl)methanone]: the inhibition at 5 µM was in the range of 50 to 70%.

`COC(=O)CCS(=O)(=O)N1CCCC(C(=O)N2CCN(c3ccnc4ccccc34)CC2)C1` (stereo not shown) [Example 132, methyl 3-((3-(4-(quinolin-4-yl)piperazine-1-carbonyl)piperidin-1-yl)sulfonyl)propanoate]: the inhibition at 5 µM lay in the range of 50 to 70%.

Take `O=C(C1CCCN(S(=O)(=O)CCCO)C1)N1CCN(c2ccnc3ccccc23)CC1` (stereo not shown) [Example 133, (1-((3-hydroxypropyl)sulfonyl)piperidin-3-yl)(4-(quinolin-4-yl)piperazin-1-yl)methanone]: the inhibition at 5 µM was 50 to 70%.

As for `O=C(C1CCN(Cc2ccc([N+](=O)[O-])cc2)C1)N1CCN(c2ccnc3ccccc23)CC1` (stereo not shown) [Example 153, (1-(4-nitrobenzyl)pyrrolidin-3-yl)(4-(quinolin-4-yl)piperazin-1-yl)methanone], the inhibition at 5 µM was 50 to 70%.

On to `Cn1cnnc1CN1CC[C@H](C(=O)N2CCN(c3ccnc4cc(F)ccc34)CC2)C1` [Example 154, (S)-(4-(7-fluoroquinolin-4-yl)piperazin-1-yl)(1-((4-methyl-4H-1,2,4-triazol-3-yl)methyl)pyrrolidin-3-yl)methanone], for which the inhibition at 5 µM was in the range of 50 to 70%.

The same assay, now with this note: Compound concentration 5 μM; 70%-90%; read-out: % Inhibition 70%-90%.
Take `O=C(C1CCN(S(=O)(=O)c2ncn[nH]2)CC1)N1CCN(c2ccnc3cc(F)ccc23)CC1` [Example 135, (1-((1H-1,2,4-triazol-5-yl)sulfonyl)piperidin-4-yl)(4-(7-fluoroquinolin-4-yl)piperazin-1-yl)methanone]: the inhibition at 5 µM fell in the range of 70 to 90%.

As to `O=C([C@H]1CCN(S(=O)(=O)c2ncn[nH]2)C1)N1CCN(c2ccnc3c(F)cccc23)CC1` [Example 138, (S)-(1-((1H-1,2,4-triazol-5-yl)sulfonyl)pyrrolidin-3-yl)(4-(8-fluoroquinolin-4-yl)piperazin-1-yl)methanone], the inhibition at 5 µM was 70 to 90%.

Take `Cn1cnc(S(=O)(=O)N2CC[C@H](C(=O)N3CCN(c4ccnc5cc(F)ccc45)CC3)C2)n1` [Example 139, (S)-(4-(7-fluoroquinolin-4-yl)piperazin-1-yl)(1-((1-methyl-1H-1,2,4-triazol-3-yl)sulfonyl)pyrrolidin-3-yl)methanone]: the inhibition at 5 µM lay in the range of 70 to 90%.

For the compound `CC(C)n1cnc(S(=O)(=O)N2CC[C@H](C(=O)N3CCN(c4ccnc5cc(F)ccc45)CC3)C2)n1` [Example 141], the inhibition at 5 µM fell in the range of 70 to 90%.

Regarding `NCCn1cnc(S(=O)(=O)N2CC[C@H](C(=O)N3CCN(c4ccnc5cc(F)ccc45)CC3)C2)n1` [Example 144, (S)-(1-((1-(2-aminoethyl)-1H-1,2,4-triazol-3-yl)sulfonyl)pyrrolidin-3-yl)(4-(7-fluoroquinolin-4-yl)piperazin-1-yl)methanone], the inhibition at 5 µM was 70 to 90%.

On to `O=C([C@H]1CCN(S(=O)(=O)c2ncnn2CCO)C1)N1CCN(c2ccnc3cc(F)ccc23)CC1` [Example 145, (S)-(4-(7-fluoroquinolin-4-yl)piperazin-1-yl)(1-((1-(2-hydroxyethyl)-1H-1,2,4-triazol-5-yl)sulfonyl)pyrrolidin-3-yl)methanone], for which the inhibition at 5 µM is 70 to 90%.

As to `NCCn1ccnc1S(=O)(=O)N1CC[C@H](C(=O)N2CCN(c3ccnc4cc(F)ccc34)CC2)C1` [Example 150, (S)-(1-((1-(2-aminoethyl)-1H-imidazol-2-yl)sulfonyl)pyrrolidin-3-yl)(4-(7-fluoroquinolin-4-yl)piperazin-1-yl)methanone], the inhibition at 5 µM fell in the range of 70 to 90%.

With `Cc1nn(C)c(C)c1S(=O)(=O)N1CC[C@H](C(=O)N2CCN(c3ccnc4ccccc34)CC2)C1` [Example 151, (S)-(4-(quinolin-4-yl)piperazin-1-yl)(1-((1,3,5-trimethyl-1H-pyrazol-4-yl)sulfonyl)pyrrolidin-3-yl)methanone], the inhibition at 5 µM lay within 70 to 90%.

Regarding `Cc1nn(C)c(C)c1S(=O)(=O)N1CC[C@@H](C(=O)N2CCN(c3ccnc4ccccc34)CC2)C1` [Example 152, (R)-(4-(quinolin-4-yl)piperazin-1-yl)(1-((1,3,5-trimethyl-1H-pyrazol-4-yl)sulfonyl)pyrrolidin-3-yl)methanone], the inhibition at 5 µM fell in the range of 70 to 90%.

The assay is the same for the next values; noted with them: Compound concentration 5 μM; Greater than 90%; read-out: % Inhibition Greater than 90%.
With `O=C([C@@H]1CCN(S(=O)(=O)c2ncn[nH]2)C1)N1CCN(c2ccnc3cc(F)ccc23)CC1` [Example 134, (R)-(1-((1H-1,2,4-triazol-5-yl)sulfonyl)pyrrolidin-3-yl)(4-(7-fluoroquinolin-4-yl)piperazin-1-yl)methanone], the inhibition at 5 µM is greater than 90%.

Consider `O=C([C@H]1CCN(S(=O)(=O)c2ncn[nH]2)C1)N1CCN(c2ccnc3ccc(F)cc23)CC1` [Example 136, (S)-(1-((1H-1,2,4-triazol-5-yl)sulfonyl)pyrrolidin-3-yl)(4-(6-fluoroquinolin-4-yl)piperazin-1-yl)methanone], for which the inhibition at 5 µM is greater than 90%.

In the case of `O=C(C1CN(S(=O)(=O)c2ncn[nH]2)C1)N1CCN(c2ccnc3cc(F)ccc23)CC1` [Example 137, (1-((1H-1,2,4-triazol-5-yl)sulfonyl)azetidin-3-yl)(4-(7-fluoroquinolin-4-yl)piperazin-1-yl)methanone], the inhibition at 5 µM is greater than 90%.

For `O=C([C@H]1CCN(S(=O)(=O)c2ncn(CCO)n2)C1)N1CCN(c2ccnc3cc(F)ccc23)CC1` [Example 140, (S)-(4-(7-fluoroquinolin-4-yl)piperazin-1-yl)(1-((1-(2-hydroxyethyl)-1H-1,2,4-triazol-3-yl)sulfonyl)pyrrolidin-3-yl)methanone], the inhibition at 5 µM is greater than 90%.

As for `CC(=O)Cn1cnc(S(=O)(=O)N2CC[C@H](C(=O)N3CCN(c4ccnc5cc(F)ccc45)CC3)C2)n1` [Example 142, (S)-1-(3-((3-(4-(7-fluoroquinolin-4-yl)piperazine-1-carbonyl)pyrrolidin-1-yl)sulfonyl)-1H-1,2,4-triazol-1-yl)propan-2-one], the inhibition at 5 µM was greater than 90%.

As to `COCCn1cnc(S(=O)(=O)N2CC[C@H](C(=O)N3CCN(c4ccnc5cc(F)ccc45)CC3)C2)n1` [Example 143, (S)-(4-(7-fluoroquinolin-4-yl)piperazin-1-yl)(1-((1-(2-methoxyethyl)-1H-1,2,4-triazol-3-yl)sulfonyl)pyrrolidin-3-yl)methanone], the inhibition at 5 µM is greater than 90%.

On to `O=C([C@H]1CCN(S(=O)(=O)c2ncc[nH]2)C1)N1CCN(c2ccnc3cc(F)ccc23)CC1` [Example 146, (S)-(1-((1H-imidazol-2-yl)sulfonyl)pyrrolidin-3-yl)(4-(7-fluoroquinolin-4-yl)piperazin-1-yl)methanone], for which the inhibition at 5 µM is greater than 90%.

For `O=C([C@@H]1CCN(S(=O)(=O)c2ncc[nH]2)C1)N1CCN(c2ccnc3cc(F)ccc23)CC1` [Example 147, (R)-(1-((1H-imidazol-2-yl)sulfonyl)pyrrolidin-3-yl)(4-(7-fluoroquinolin-4-yl)piperazin-1-yl)methanone], the inhibition at 5 µM was greater than 90%.

As for `O=C([C@H]1CCN(S(=O)(=O)c2nccn2CCO)C1)N1CCN(c2ccnc3cc(F)ccc23)CC1` [Example 148, (S)-(4-(7-fluoroquinolin-4-yl)piperazin-1-yl)(1-((1-(2-hydroxyethyl)-1H-imidazol-2-yl)sulfonyl)pyrrolidin-3-yl)methanone], the inhibition at 5 µM was greater than 90%.

For `COCCn1ccnc1S(=O)(=O)N1CC[C@H](C(=O)N2CCN(c3ccnc4cc(F)ccc34)CC2)C1` [Example 149, (S)-(4-(7-fluoroquinolin-4-yl)piperazin-1-yl)(1-((1-(2-methoxyethyl)-1H-imidazol-2-yl)sulfonyl)pyrrolidin-3-yl)methanone], the inhibition at 5 µM was greater than 90%.

The values are drawn from US12612384B2, “Heterocyclic CYP4A inhibitor compounds and compositions thereof” (MBD CO., LTD., priority 2021, dated 2026).
